Active and inactive are the calls of the source. No cut-off for these calls is given here.

The species entered for experiment [1] is Oryctolagus cuniculus. Particulars: Plasma, 10 nM.
Description: Inhibition of Lp-PLA2 in rabbit plasma using [3H]PAF as substrate at 10 nM incubated for 5 mins prior to substrate addition measured after 10 mins by liquid scintillation counting analysis relative to control
The species entered for experiment [2] is Oryctolagus cuniculus. Conditions: Plasma, 100 nM.
Description: Inhibition of Lp-PLA2 in rabbit plasma using [3H]PAF as substrate at 100 nM incubated for 5 mins prior to substrate addition measured after 10 mins by liquid scintillation counting analysis relative to control
The species named for the next experiment is Mus musculus. Conditions: C57, 50 mg/kg.

Description for Mus musculus: In vivo inhibition of Lp-PLA2 in C57 mouse serum using 2-thio-PAF as substrate at 50 mg/kg, po measured over 24 hrs

Broadly, the inhibition is the drop in the measured response relative to a control, in per cent. `O=c1nc(SCc2ccc(F)cc2)n(Cc2nnc(CNCCN3CCCCC3)n2Cc2ccc(-c3ccc(C(F)(F)F)cc3)cc2)c2c1CCC2`: the inhibition in the experiment filed under Oryctolagus cuniculus [1] is 33%.

Consider `CN(CC(=O)O)Cc1nnc(Cn2c(SCc3ccc(F)cc3)nc(=O)c3c2CCC3)n1Cc1ccc(-c2ccc(C(F)(F)F)cc2)cc1`, for which the inhibition in the experiment listed under Oryctolagus cuniculus [2] came out at 74%; in the experiment listed under Oryctolagus cuniculus [1], 5%.

The compound `CCN(CC)CCNCc1nnc(Cn2c(SCc3ccc(F)cc3)nc(=O)c3c2CCC3)n1Cc1ccc(-c2ccc(C(F)(F)F)cc2)cc1` had an inhibition in the experiment filed under Oryctolagus cuniculus [1] of 35%.

For the compound `CC(C)N(CCNCc1nnc(Cn2c(SCc3ccc(F)cc3)nc(=O)c3c2CCC3)n1Cc1ccc(-c2ccc(C(F)(F)F)cc2)cc1)C(C)C`, in the experiment listed under Oryctolagus cuniculus [1], the inhibition worked out at 41%.

For `COCCNCc1nnc(Cn2c(SCc3ccc(F)cc3)nc(=O)c3c2CCC3)n1Cc1ccc(-c2ccc(C(F)(F)F)cc2)cc1`, the inhibition in the experiment listed under Oryctolagus cuniculus [1] is 13%.

As for `CN(CCN1CCCCC1)Cc1cnc(Cn2c(SCc3ccc(F)cc3)nc(=O)c3c2CCC3)n1Cc1ccc(-c2ccc(C(F)(F)F)cc2)cc1`, the inhibition is 92% in the experiment listed under Oryctolagus cuniculus [2] and 54% in the experiment listed under Oryctolagus cuniculus [1].

Turning to `O=c1nc(SCc2ccc(F)cc2)n(Cc2nnc(CNCCN3CCCC3)n2Cc2ccc(-c3ccc(C(F)(F)F)cc3)cc2)c2c1CCC2`, the inhibition in the experiment filed under Oryctolagus cuniculus [1] turned out to be 55%.

Consider `CCN(CCN(C)C)Cc1nnc(Cn2c(SCc3ccc(F)cc3)nc(=O)c3c2CCC3)n1Cc1ccc(-c2ccc(C(F)(F)F)cc2)cc1`, for which the inhibition in the experiment filed under Oryctolagus cuniculus [1] came out at 75%.

In turn, `CN(C)[C@@H]1CCN(Cc2nnc(Cn3c(SCc4ccc(F)cc4)nc(=O)c4c3CCC4)n2Cc2ccc(-c3ccc(C(F)(F)F)cc3)cc2)C1` gave an inhibition in the experiment filed under Oryctolagus cuniculus [1] of 54%.

Take `CN(CCN1CCCCC1)Cc1nnc(Cn2c(SCc3ccc(F)cc3)nc(=O)c3c2CCC3)n1Cc1ccc(-c2ccc(C(F)(F)F)cc2)cc1`: the figures for the inhibition in the experiment filed under Oryctolagus cuniculus [2] and in the experiment listed under Oryctolagus cuniculus [1] were 97% and 75%, respectively. Further, the inhibition result in the experiment listed under Mus musculus was “Active”.

In the case of `CN(CCN1CCCC1)Cc1nnc(Cn2c(SCc3ccc(F)cc3)nc(=O)c3c2CCC3)n1Cc1ccc(-c2ccc(C(F)(F)F)cc2)cc1`, the inhibition in the experiment filed under Oryctolagus cuniculus [2] was determined as 97%; in the experiment filed under Oryctolagus cuniculus [1], 76%.

Take `CCN(CC)CCN(Cc1nnc(Cn2c(SCc3ccc(F)cc3)nc(=O)c3c2CCC3)n1Cc1ccc(-c2ccc(C(F)(F)F)cc2)cc1)C(C)C`: the inhibition in the experiment filed under Oryctolagus cuniculus [2] was determined as 95%; in the experiment filed under Oryctolagus cuniculus [1], 33%.

Compound `O=c1nc(SCc2ccc(F)cc2)n(Cc2nnc(CNCCN3CCOCC3)n2Cc2ccc(-c3ccc(C(F)(F)F)cc3)cc2)c2c1CCC2` yielded an inhibition in the experiment filed under Oryctolagus cuniculus [1] of 32%.

In the case of `CCN(CC)CCN(C)Cc1cnc(Cn2c(SCc3ccc(F)cc3)nc(=O)c3c2CCC3)n1Cc1ccc(-c2ccc(C(F)(F)F)cc2)cc1`, the inhibition in the experiment filed under Oryctolagus cuniculus [2] stood at 89%; in the experiment filed under Oryctolagus cuniculus [1], 54%.

In the experiment listed under Oryctolagus cuniculus [1], `CN(Cc1ccccn1)Cc1nnc(Cn2c(SCc3ccc(F)cc3)nc(=O)c3c2CCC3)n1Cc1ccc(-c2ccc(C(F)(F)F)cc2)cc1` yielded an inhibition of 36%.

For `CN(C)CCN(C)Cc1nnc(Cn2c(SCc3ccc(F)cc3)nc(=O)c3c2CCC3)n1Cc1ccc(-c2ccc(C(F)(F)F)cc2)cc1`, in the experiment listed under Oryctolagus cuniculus [1], the inhibition was determined as 77%.

Regarding `O=c1nc(SCc2ccc(F)cc2)n(Cc2nnc(CCCN3CCCCC3)n2Cc2ccc(-c3ccc(C(F)(F)F)cc3)cc2)c2c1CCC2`, the inhibition in the experiment listed under Oryctolagus cuniculus [2] came to 96%; in the experiment filed under Oryctolagus cuniculus [1], 76%.

Consider `CN(C)CCCN(C)Cc1nnc(Cn2c(SCc3ccc(F)cc3)nc(=O)c3c2CCC3)n1Cc1ccc(-c2ccc(C(F)(F)F)cc2)cc1`, for which the inhibition in the experiment listed under Oryctolagus cuniculus [1] stood at 73%.

`CN(C)[C@H]1CCN(Cc2nnc(Cn3c(SCc4ccc(F)cc4)nc(=O)c4c3CCC4)n2Cc2ccc(-c3ccc(C(F)(F)F)cc3)cc2)C1`: the inhibition in the experiment listed under Oryctolagus cuniculus [1] amounted to 46%.

Consider `CCN(CC)CCCc1nnc(Cn2c(SCc3ccc(F)cc3)nc(=O)c3c2CCC3)n1Cc1ccc(-c2ccc(C(F)(F)F)cc2)cc1`, for which, in the experiment filed under Mus musculus, the inhibition result is “inactive”. The same compound had an inhibition in the experiment filed under Oryctolagus cuniculus [1] of 73%.

Consider `O=c1nc(SCc2ccc(F)cc2)n(Cc2nnc(CCCN3CCCC3)n2Cc2ccc(-c3ccc(C(F)(F)F)cc3)cc2)c2c1CCC2`, for which the inhibition in the experiment listed under Oryctolagus cuniculus [2] was 97%; in the experiment filed under Oryctolagus cuniculus [1], 75%.

As to `CC(c1nnc(Cn2c(SCc3ccc(F)cc3)nc(=O)c3c2CCC3)n1Cc1ccc(-c2ccc(C(F)(F)F)cc2)cc1)N(C)CCCN(C)C` (configuration not stated), the inhibition in the experiment filed under Oryctolagus cuniculus [1] came to 71%.

`CC(c1nnc(Cn2c(SCc3ccc(F)cc3)nc(=O)c3c2CCC3)n1Cc1ccc(-c2ccc(C(F)(F)F)cc2)cc1)N(C)CCN(C)C` (configuration not stated) displayed an inhibition in the experiment filed under Oryctolagus cuniculus [1] of 71%.

As to `CCN(CC)CCN(C)C(C)c1nnc(Cn2c(SCc3ccc(F)cc3)nc(=O)c3c2CCC3)n1Cc1ccc(-c2ccc(C(F)(F)F)cc2)cc1` (configuration not stated), in the experiment filed under Mus musculus, the inhibition entry was “Active”. This compound also gave an inhibition in the experiment filed under Oryctolagus cuniculus [1] of 76%.

Consider `CCN(CC)CCN(Cc1ccc(-c2ccc(C(F)(F)F)cc2)cc1)C(=O)Cn1c(SCc2ccc(F)cc2)nc(=O)c2c1CCC2`, for which the inhibition is 99% in the experiment filed under Oryctolagus cuniculus [2] and 82% in the experiment filed under Oryctolagus cuniculus [1].

On to `CCN(CC)CCN(C)Cc1nnc(Cn2c(SCc3ccc(F)cc3)nc(=O)c3c2CCC3)n1Cc1ccc(-c2ccc(C(F)(F)F)cc2)cc1`, for which, in the experiment filed under Mus musculus, the inhibition result was “Active”. Also, in the experiment filed under Oryctolagus cuniculus [1], the inhibition was determined as 72%.

For `CCN(CC)CCCCc1nnc(Cn2c(SCc3ccc(F)cc3)nc(=O)c3c2CCC3)n1Cc1ccc(-c2ccc(C(F)(F)F)cc2)cc1`, the inhibition in the experiment listed under Oryctolagus cuniculus [2] amounted to 95%; in the experiment listed under Oryctolagus cuniculus [1] it was 74%. Also, the inhibition entry in the experiment filed under Mus musculus was “inactive”.

For the origin of these results see ChEMBL document CHEMBL2380232, “Triazole derivatives: a series of Darapladib analogues as orally active Lp-PLA2 inhibitors” (Bioorg Med Chem Lett, 2013).
